The structures appear in SMILES notation.

Broadly, the EC50 is the midpoint of the concentration-response curve.

The first test has as its system HBV rcDNA. Kind of test: HepDE19 assay with bDNA quantitation of HBV rcDNA. It is filed as cell-based, hepatitis B virus (HBV). The conditions noted are these: HepDE19 cells, 7 day incubation, rcDNA measured by Quantigene 2.0 bDNA assay, top concentration 25 μM; read-out: DE-19bDNA EC50. In a few lines:
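HepDE19 cells were switched to tetracycline-free medium and exposed to compound (0.5% DMSO final) for 7 days at 37° C. rcDNA was then quantified by bDNA with an HBV-specific probe set. In parallel, viability was read as ATP content (CellTiter-Glo) after 4 days on replicate plates.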
Consider `CC(c1c[nH]c(=O)c2cc(F)c(F)cc12)N(CCCO)C(=O)c1[nH]c2ccccc2c1Cl` (single isomer, unassigned) [Compound 94, 3-Chloro-N-(1-(6,7-difluoro-1-oxo-1,2-dihydroisoquinolin-4-yl)ethyl)-N-(3-hydroxypropyl)-1H-indole-2-carboxamide], for which the EC50 was determined as 19 µM.
Still for that read-out and setting: as for `CC(c1c[nH]c(=O)c2cc(F)c(F)cc12)N(CCCO)C(=O)c1[nH]c2ccccc2c1Cl` (single isomer, unassigned) [Compound 95, 3-Chloro-N-(1-(6,7-difluoro-1-oxo-1,2-dihydroisoquinolin-4-yl)ethyl)-N-(3-hydroxypropyl)-1H-indole-2-carboxamide], the figure is 0.4 µM; as for `CC(c1c[nH]c(=O)c2cc(F)c(F)cc12)N(C)C(=O)c1cc2cc(Cl)ccn2c1` (single isomer, unassigned) [Compound 96, 7-Chloro-N-(1-(6,7-difluoro-1-oxo-1,2-dihydroisoquinolin-4-yl)ethyl)-N-methylindolizine-2-carboxamide], 4.6 µM.
On the same count and under the same terms, as for `CC(c1c[nH]c(=O)c2cc(F)c(F)cc12)N(C)C(=O)c1cc2cc(Cl)ccn2c1` (single isomer, unassigned) [Compound 97, 7-Chloro-N-(1-(6,7-difluoro-1-oxo-1,2-dihydroisoquinolin-4-yl)ethyl)-N-methylindolizine-2-carboxamide], the figure is 0.09 µM; as for `CC(c1c[nH]c(=O)c2cc(F)c(F)cc12)N(C)C(=O)c1cc2ccc(F)cn2c1` (single isomer, unassigned) [Compound 102, N-(1-(6,7-Difluoro-1-oxo-1,2-dihydroisoquinolin-4-yl)ethyl)-6-fluoro-N-methylindolizine-2-carboxamide], 12 µM.
The same measure, in the same setting: the figure for `CC(c1c[nH]c(=O)c2cc(F)c(F)cc12)N(C)C(=O)c1cc2ccc(F)cn2c1` (single isomer, unassigned) [Compound 103, N-(1-(6,7-Difluoro-1-oxo-1,2-dihydroisoquinolin-4-yl)ethyl)-6-fluoro-N-methylindolizine-2-carboxamide] is 0.03 µM; for `CC(c1c[nH]c(=O)c2cc(F)c(F)cc12)N(C)C(=O)c1cc2cc(F)ccn2c1` (single isomer, unassigned) [Compound 108, N-(1-(6,7-Difluoro-1-oxo-1,2-dihydroisoquinolin-4-yl)ethyl)-7-fluoro-N-methylindolizine-2-carboxamide] it is 0.02 µM.
In the case of `CC(c1c[nH]c(=O)c2cc(F)c(F)cc12)N(C)C(=O)c1cc2cc(F)ccn2c1` (single isomer, unassigned) [Compound 109, N-(1-(6,7-Difluoro-1-oxo-1,2-dihydroisoquinolin-4-yl)ethyl)-7-fluoro-N-methylindolizine-2-carboxamide], the 50% effective concentration (EC50) was 3.2 µM.
Same read-out and setting: as for `CC(c1c[nH]c(=O)c2cc(F)c(F)cc12)N(C)C(=O)c1cc2ccc(Cl)cn2c1` (single isomer, unassigned) [Compound 110, 6-Chloro-N-(1-(6,7-difluoro-1-oxo-1,2-dihydroisoquinolin-4-yl)ethyl)-N-methylindolizine-2-carboxamide], the figure is 0.04 µM; as for `CC(c1c[nH]c(=O)c2cc(F)c(F)cc12)N(C)C(=O)c1cc2ccc(Cl)cn2c1` (single isomer, unassigned) [Compound 111, 6-Chloro-N-(1-(6,7-difluoro-1-oxo-1,2-dihydroisoquinolin-4-yl)ethyl)-N-methylindolizine-2-carboxamide], 1.4 µM.
On the same count and under the same terms, the figure for `CC(c1c[nH]c(=O)c2cc(F)c(F)cc12)N(C)C(=O)c1ccc(C(F)(F)F)c(F)c1` (single isomer, unassigned) [Compound 119, N-(1-(6,7-Difluoro-1-oxo-1,2-dihydroisoquinolin-4-yl)ethyl)-3-fluoro-N-methyl-4-(trifluoromethyl) benzamide] is 4.02 µM.
Still for that read-out and setting: the figure for `CC(c1c[nH]c(=O)c2cc(F)c(F)cc12)N(C)C(=O)c1ccc(C(F)(F)F)c(F)c1` (single isomer, unassigned) [Compound 120, N-(1-(6,7-Difluoro-1-oxo-1,2-dihydroisoquinolin-4-yl)ethyl)-3-fluoro-N-methyl-4-(trifluoromethyl) benzamide] is 0.02 µM.
Turning to `CC(c1c[nH]c(=O)c2cc(F)c(F)cc12)N(C)C(=O)c1ccc(Cl)c(F)c1` (single isomer, unassigned) [Compound 121, 4-Chloro-N-(1-(6,7-difluoro-1-oxo-1,2-dihydroisoquinolin-4-yl)ethyl)-3-fluoro-N-methylbenzamide], the EC50 was determined as 5.68 µM.
Regarding `CC(c1c[nH]c(=O)c2cc(F)c(F)cc12)N(C)C(=O)c1ccc(Cl)c(F)c1` (single isomer, unassigned) [Compound 122, 4-Chloro-N-(1-(6,7-difluoro-1-oxo-1,2-dihydroisoquinolin-4-yl)ethyl)-3-fluoro-N-methylbenzamide], the EC50 came to 0.04 µM.
Same read-out and setting: the figure for `CC(c1c[nH]c(=O)c2cc(F)c(F)cc12)N(C)C(=O)c1cc(F)c(F)c(F)c1` (single isomer, unassigned) [Compound 123, N-(1-(6,7-Difluoro-1-oxo-1,2-dihydroisoquinolin-4-yl)ethyl)-3,4,5-trifluoro-N-methylbenzamide] is 22.4 µM.
The same measure, in the same setting: as for `CC(c1c[nH]c(=O)c2cc(F)c(F)cc12)N(C)C(=O)c1cc(F)c(F)c(F)c1` (single isomer, unassigned) [Compound 124, N-(1-(6,7-Difluoro-1-oxo-1,2-dihydroisoquinolin-4-yl)ethyl)-3,4,5-trifluoro-N-methylbenzamide], the figure is 0.19 µM.
The same measure, in the same setting: the figure for `CC(c1c[nH]c(=O)c2cc(F)c(F)cc12)N(C)C(=O)c1cccc(C(F)F)c1` (single isomer, unassigned) [Compound 125, N-(1-(6,7-Difluoro-1-oxo-1,2-dihydroisoquinolin-4-yl)ethyl)-3-(difluoromethyl)-N-methylbenzamide] is 24.8 µM.
In the case of `CC(c1c[nH]c(=O)c2cc(F)c(F)cc12)N(C)C(=O)c1cccc(C(F)F)c1` (single isomer, unassigned) [Compound 126, N-(1-(6,7-Difluoro-1-oxo-1,2-dihydroisoquinolin-4-yl)ethyl)-3-(difluoromethyl)-N-methylbenzamide], the concentration giving a half-maximal response (EC50) amounted to 0.1 µM.
As to `CC(c1c[nH]c(=O)c2cc(F)c(F)cc12)N(C)C(=O)c1ccc(C(F)(F)F)cc1` (single isomer, unassigned) [Compound 129, N-(1-(6,7-Difluoro-1-oxo-1,2-dihydroisoquinolin-4-yl)ethyl)-N-methyl-4-(trifluoromethyl) benzamide], the 50% effective concentration (EC50) is 6.46 µM.
The same measure, in the same setting: as for `CC(c1c[nH]c(=O)c2cc(F)c(F)cc12)N(C)C(=O)c1ccc(C(F)(F)F)cc1` (single isomer, unassigned) [Compound 130, N-(1-(6,7-Difluoro-1-oxo-1,2-dihydroisoquinolin-4-yl)ethyl)-N-methyl-4-(trifluoromethyl) benzamide], the figure is 0.02 µM; as for `CC(c1c[nH]c(=O)c2cc(F)c(F)cc12)N(C)C(=O)c1ccc(F)c(C(F)F)c1` (single isomer, unassigned) [Compound 133, N-(1-(6,7-Difluoro-1-oxo-1,2-dihydroisoquinolin-4-yl)ethyl)-3-(difluoromethyl)-4-fluoro-N-methylbenzamide], 14.7 µM; as for `CC(c1c[nH]c(=O)c2cc(F)c(F)cc12)N(C)C(=O)c1ccc(F)c(C(F)F)c1` (single isomer, unassigned) [Compound 134, N-(1-(6,7-Difluoro-1-oxo-1,2-dihydroisoquinolin-4-yl)ethyl)-3-(difluoromethyl)-4-fluoro-N-methylbenzamide], 0.06 µM.
The same measure, in the same setting: as for `CC(c1c[nH]c(=O)c2cc(F)c(F)cc12)N(C)C(=O)c1ccc(F)c(Cl)c1` (single isomer, unassigned) [Compound 135, 3-Chloro-N-(1-(6,7-difluoro-1-oxo-1,2-dihydroisoquinolin-4-yl)ethyl)-4-fluoro-N-methylbenzamide], the figure is 9.61 µM; as for `CC(c1c[nH]c(=O)c2cc(F)c(F)cc12)N(C)C(=O)c1ccc(F)c(Cl)c1` (single isomer, unassigned) [Compound 136, 3-Chloro-N-(1-(6,7-difluoro-1-oxo-1,2-dihydroisoquinolin-4-yl)ethyl)-4-fluoro-N-methylbenzamide], 0.17 µM.
On the same count and under the same terms, as for `CC(c1c[nH]c(=O)c2cc(F)c(F)cc12)N(C)C(=O)c1ccc(F)c(F)c1` (single isomer, unassigned) [Compound 137, N-(1-(6,7-Difluoro-1-oxo-1,2-dihydroisoquinolin-4-yl)ethyl)-3,4-difluoro-N-methylbenzamide], the figure is 22.4 µM.

Staying with this test, now noted: read-out: DE-19bDNA EC50; HepDE19 cells, 7 day incubation, rcDNA measured by Quantigene 2.0 bDNA assay, top concentration 25 μM.
Take `CC(c1c[nH]c(=O)c2cc(F)c(F)cc12)N(C)C(=O)c1ccccc1` (single isomer, unassigned) [Compound 127, N-(1-(6,7-Difluoro-1-oxo-1,2-dihydroisoquinolin-4-yl)ethyl)-N-methylbenzamide]: the 50% effective concentration (EC50) stood at 3.53 µM.
Still for that read-out and setting: the figure for `CC(c1c[nH]c(=O)c2cc(F)c(F)cc12)N(C)C(=O)c1ccccc1` (single isomer, unassigned) [Compound 128, N-(1-(6,7-Difluoro-1-oxo-1,2-dihydroisoquinolin-4-yl)ethyl)-N-methylbenzamide] is more than 25 µM; for `CC(c1c[nH]c(=O)c2cc(F)c(F)cc12)N(C)C(=O)c1ccc(Cl)cc1` (single isomer, unassigned) [Compound 131, 4-Chloro-N-(1-(6,7-difluoro-1-oxo-1,2-dihydroisoquinolin-4-yl)ethyl)-N-methylbenzamide] it is 14.7 µM; for `CC(c1c[nH]c(=O)c2cc(F)c(F)cc12)N(C)C(=O)c1ccc(Cl)cc1` (single isomer, unassigned) [Compound 132, 4-Chloro-N-(1-(6,7-difluoro-1-oxo-1,2-dihydroisoquinolin-4-yl)ethyl)-N-methylbenzamide] it is 0.06 µM.

Source of the values: patent US20230295115A1, “SUBSTITUTED ISOQUINOLINYLMETHYL AMIDES, ANALOGUES THEREOF, AND METHODS USING SAME” (priority 2020, published 2023).
